Assay results as given in patent US20180141939A1, “SOLID FORMS OF A BET INHIBITOR” (Gilead Sciences, Inc., priority 2016, published 2018).
≈ marks a conversion by molar mass, not a printed value.

Assays:
Type in all cases: physicochemical
[1] = Ionization constants (pKa); conditions: multiple ionization constants; read-out: weak base pKa values
[2] = physchem
[3] = Chemical stability in aqueous solutions as a function of pH and temperature; conditions: for degradation in aqueous solution: about 20 weeks
Description: (FIG. 88(a)), or about 40° C. (FIG. 88(b)) over a period of about 20 weeks.

[4] = Susceptibility to oxidation in solution as a function of pH; conditions: about 40° C., about 14 days
Description: In the presence of iron (II) ions, formation of a complex with iron is observed at high pH (FIG. 90). This complex can be reversed to yield Compound I by addition of a strong acid.

[5] = increased degradation at higher pH

For `Cc1noc(C)c1-c1cc(C(O)(c2ccccn2)c2ccccn2)c2nc(C3CC3)[nH]c2c1` [Compound I, (2-cyclopropyl-6-(3,5-dimethylisoxazol-4-yl)-1H-benzo[d]imidazol-4-yl)di(pyridin-2-yl)methanol], which pKa [1] is on record?
Its pKa is 2.9.

And the solubility ([2]; pH 2.4, aqueous buffer)?
Its solubility is > 100000 µg/mL.

What about the solubility ([2]; pH 8, aqueous buffer) of the same compound?
The solubility was 9.2 µg/mL (≈ 21 µM).

What about the “degradation in aqueous solution” value ([3]; about pH 1 to about pH 11, about 25° C.) of the same compound?
The value was “no significant degradation”.

And the “degradation in aqueous solution” value ([3]; about pH 1 to about pH 11, about 40° C.)?
Its value is “no significant degradation”.

What about the “degradation in aqueous solution” value ([3]; about pH 1 to about pH 11, about 60° C., exception pH 5 (small amount of aluminum complex)) of the same compound?
Its value is “no significant degradation”.

And the “susceptibility to acid- or base-catalyzed degradation” value ([3]; aqueous solutions as a function of pH and temperature)?
Its value is “not susceptible to acid- or base-catalyzed degradation”.

What about the “degradation in solution containing polysorbate 80” value [4] of the same compound?
The value was “No significant degradation”.

What about the “degradation in solution containing radical initiator” value [4] of the same compound?
Its value is “No significant degradation”.

What about the “degradation in solution containing hydrogen peroxide” value [4, 5] of the same compound?
The value was “loss of Compound I”.

What about the “degradation in solution containing iron (II) ions” value [4, 5] of the same compound?
Its value is “loss of Compound I”.
